Data from PMC12190736, “Development and In Vitro Characterization of [^3H]GMC-058 as Radioligand for Imaging Parkinsonian-Related Proteinopathies” (Cells, 2025).
Like-named read-outs stand apart in the source and are kept apart here.

Key:
[1] = biological target: recombinant α-syn fibrils (Homo sapiens, UniProt P37840); assay: Radioligand binding displacement of [^3H]-α-syn-tool on α-syn fibrils; conditions: 5 nM [^3H]-α-syn-tool
Procedure: Compound affinity for α-syn fibrils was measured by means of radioligand binding displacement experiments of an AbbVie tool radioligand with high affinity for α-syn fibrils ([^3H]-α-syn-tool). The aggregation of α-syn monomers into fibrils was obtained as described by Bousset et al.. In brief, monomers (5 mg/mL, prepared in AbbVie (Worcester, MA, USA) were incubated in 150 mM of KCl and 50 mM of Tris-HCl (pH 7.5) for 7 days at 37 °C, under constant shaking conditions (650 rpm, Eppendorf Thermomixer C, Eppendorf, Hamburg, Germany). After incubation, the fibrils were harvested via ultra-centrifugation (40,100× g, 30 min, 20 °C), resuspended in buffer, sonicated (40% amplitude, 10 s pulse on, 5 s pulse off) for 4.5 min at 20 °C, divided into aliquots (5.5 mg/mL), and stored at −80 °C until the day of the experiment. The characterization of the fibrils included protein content determination (BCA method) and an analysis of Proteinase K degradation pattern.
On the day of the experiment, α-syn fibrils were thawed for a few minutes at 37 °C, diluted in Dulbecco’s Phosphate Buffered Saline (PBS) without calcium and magnesium, pH = 7.4 (DPBS) plus 0.1% bovine serum albumin (BSA), and incubated (at the final fibrils concentration of 2.5 µg/mL) for 60 min, at room temperature (RT), with 5 nM [^3H]-α-syn-tool, in the absence or presence of different concentrations of non-radiolabeled compounds. Bound radioligand was separated from free radioligand via rapid filtration and washings with cold DPBS, using a Unifilter-96 GF/B filter plate (PerkinElmer, Rodgau, Germany) presoaked in 0.3% polyethylenimmine (PEI) and a Unifilter Cell Harvester (PerkinElmer, Rodgau, Germany). Plates were air-dried, and the scintillation liquid (Betaplate Scint, PerkinElmer) was added and counted using a MicroBeta2 2450 (Perkinelmer, Rodgau, Germany). Non-specific binding (NSB) was defined as the binding in the presence of 10 µM unlabeled α-syn tool. Data fitting and the constant of inhibition (Ki) calculation was performed using the software platform from Dotmatics (Boston, MA, USA).

[2] = biological target: Aβ fibrils (Homo sapiens, UniProt P05067); assay: [^3H]PiB binding displacement on AD brain homogenates; conditions: AD brain homogenate, 1 nM [^3H]PiB
Procedure: (§1) Compounds’ affinity for tau and Aβ fibrils was measured by means of radioligand binding displacement experiments on AD brain homogenates, using [^3H]NFT-355 [8] (AbbVie, North Chicago, IL, USA) and [^3H]Pittsburg Compound-B (PiB; Novandi Chemistry AB, Södertälje, Sweden) to label tau and Aβ aggregates, respectively. Flash-frozen tissue from the frontal cerebral cortex of an AD (Braak stage V) brain was purchased from Analytical Biological Services Inc. (ABS; Wilmington, DE, USA), homogenized in DPBS, divided into aliquots (10 mg/mL), and stored at −80 °C until the day of the experiment.
(§2) On the day of the experiment, the brain homogenate was brought to RT, diluted in DPBS plus 0.1% BSA and incubated for 90 min, at RT, with 0.5 nM [^3H]NFT-355 or 1 nM [^3H]PiB, in the absence or presence of different concentrations of non-radiolabeled compounds. Bound radioligand was separated from free radioligand via rapid filtration and washings with cold DPBS, using a Unifilter-96 GF/B filter plate (presoaked in 0.3% PEI) and a Unifilter Cell Harvester (PerkinElmer). Plates were air-dried, and the scintillation liquid (Betaplate Scint, PerkinElmer) was added and counted using a MicroBeta2 2450. NSB was defined as the binding in the presence of 10 µM T808 [10] (AbbVie Germany) and 10 µM PiB for [^3H]NFT-355 and [^3H]PiB, respectively. Data fitting was performed using the software platform from Dotmatics (Boston, MA, USA).

[3] = biological target: tau fibrils (Homo sapiens, UniProt P10636); assay: [^3H]NFT-355 binding displacement on AD brain homogenates; conditions: AD brain homogenate, 0.5 nM [^3H]NFT-355
Procedure: as §1, §2

[4] = system: fresh-frozen human brain sections; assay: Autoradiography on fresh-frozen brain tissue sections; assay type: binding; conditions: for NSB: 5 µM GMC044; for NSB / Total Minus NSB / Total binding: gray matter of cingulate cortex, control C03; for Binding displaced by GMC-044: 5 µM GMC-044, control cingulate cortex tissue; for Binding in control tissue: cingulate cortex of healthy controls
Procedure: Selections of frozen human sections (described in Table 2 and Table 3) were used for binding autoradiography. Sections were first pre-incubated for 20 min in binding buffer [50 mM Tris-HCl (pH 7.4), 120 mM NaCl, 5 mM KCl, 2 mM CaCl2, 1 mM MgCl2, and 0.1% BSA] and then incubated with [^3H]GMC-058 (specific activity 22 Ci/mmol); [^3H]GMC-073 (specific activity 23.4 Ci/mmol); or […] in binding buffer for 180 min at RT. In the pilot autoradiography experiment (Figure A1). [^3H]GMC-058 was tested at 25 and 50 nM, while [^3H]GMC-073 and [^3H]GMC-098 were each tested at 10 and 20 nM. For all other autoradiography in fresh-frozen tissue sections, 25 nM [^3H]GMC-058 was used. To determine NSB, adjacent brain sections were incubated with [^3H]-tracer mixed with 5 μM of unlabeled GMC-044. The binding reaction was stopped with two 10 min washes in washing buffer [50 mM Tris-HCl (pH 7.4) at 4 °C] and a brief dip in cold distilled water. Slides were allowed to air-dry before being placed under storage phosphor screens (Fujifilm Plate BAS-TR2025, Fujifilm, Tokyo, Japan) in imaging cassettes for 90 h together with ART0123C and ART0123B tritium standards on glass slides (American Radiolabeled Chemicals Inc., St. Louis, MO, USA). Storage phosphor screens were scanned using an Amersham Typhoon FLA-9500 phosphor imaging scanner (Cytiva, Marlborough, MA, USA), and the resulting images were analyzed using Multi Gauge 3.2 phosphor imager software (Fujifilm, Tokyo, Japan) for ROI delimitation, density calibration, and quantification. Quantitative binding data from duplicates of the total, and NSB were plotted and analyzed using graphPad Prism v10 (GraphPad Software, Boston, MA, USA). Specific binding was determined by subtracting the non-specific signal from the total signal. The toluidine blue staining of adjacent sections was used to obtain anatomical references for white- and gray-matter ROI selection. Care was taken not to include artifact signals in the ROIs analyzed. These artifacts were identified as randomly placed punctate signals appearing in both total and NSB images, and they often coincided with small folds or tears in the tissue sections.

[5] = biological target: α-syn; conditions: cited from earlier work
[6] = biological target: Aβ; conditions: AD; read-out: IC50 or KD Aβ; cited from earlier work
[7] = biological target: pTau; conditions: AD; read-out: IC50 or KD pTau; cited from earlier work

Chain of Aβ fibrils (P05067 672-711 limits assumed): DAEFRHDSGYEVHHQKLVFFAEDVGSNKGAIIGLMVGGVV
Chain of tau fibrils (P10636 623-708 limits assumed): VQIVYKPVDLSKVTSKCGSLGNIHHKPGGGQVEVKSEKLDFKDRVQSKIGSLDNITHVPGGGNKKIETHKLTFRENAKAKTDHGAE

COc1ccccc1NC(=O)Nc1ccc(N2CCN(c3ccccn3)CC2)cc1 [GMC070] gave a Ki [1] of 6.8 nM, a Ki [2] of 64 nM and a Ki [3] of 90 nM.
With C[C@@H](C(=O)Nc1ccc(N2CCN(c3ccc(C#N)cn3)CC2)cc1)c1ccccc1 [GMC044] the Ki [1] was 25.2 nM, the Ki [2] was 3440 nM and the Ki [3] was 692 nM.
With COc1ccccc1NC(=O)Nc1ccc(N2CCN(c3ccccn3)CC2)c(C#N)c1 [GMC071] the Ki [1] was 14.2 nM, the Ki [2] was 8180 nM and the Ki [3] was 86 nM.
COc1ccccc1CC(=O)Nc1ccc(N2CCN(c3ccc(F)cc3)CC2)cc1C#N [GMC086] gave a Ki [1] of 15.2 nM, a Ki [2] of 809 nM and a Ki [3] of 26 nM.
In the case of [3H]c1ccc(N2CCN(C(=O)Nc3ccc(-c4ccc(OC)cc4)c(C#N)c3)CC2)cc1 [[^3H]GMC-098, N-(2-cyano-4′-methoxy-[1,1′-biphenyl]-4-yl)-4-([4-3H]phenyl)piperazine-1-carboxamide], the NSB ([4]; 10 nM radioligand) is reported as 1878 ± 74.1 fmol/mg tissue equivalent, the “Total Minus NSB” value ([4]; 10 nM radioligand) is reported as 827 fmol/mg and the Total binding ([4]; 10 nM radioligand) is reported as 2705 ± 62.2 fmol/mg tissue equivalent. The NSB ([4]; 20 nM radioligand) was 2336 ± 48.5 fmol/mg tissue equivalent, the “Total Minus NSB” value ([4]; 20 nM radioligand) was 2810 fmol/mg and the Total binding ([4]; 20 nM radioligand) was 5146 ± 386.2 fmol/mg tissue equivalent. The “Binding displaced by GMC-044” value [4] was “approximately 50%” and the “Binding in control tissue” value [4] was “clear binding”.
In the case of COc1ccc(N2CCN(c3ccc(NC(=O)C(C)(C)C)cc3)CC2)cc1 [GMC-058], the Ki [1] is reported as 22.5 nM, the Ki [2] is reported as 1490 nM and the Ki [3] is reported as 1320 nM.
With O=C(Nc1ccc(N2CCN(Cc3ccc(Cl)c(Cl)c3)CC2)cc1)c1cnccn1 [GMC021] the Ki [1] was 22.2 nM, the Ki [2] was 889 nM and the Ki [3] was 2510 nM.
Compound COc1ccc(CC(=O)Nc2ccc(N3CCN(c4ccc(C#N)cn4)CC3)cc2)cc1 [GMC025] has a Ki [1] of 29.7 nM, a Ki [2] of 141 nM and a Ki [3] of 50 nM.
In the case of O=C1c2cn(-c3ccc(N4CC[C@@H](F)C4)nc3)nc2CN1c1cccnc1 [[^18F]ACI-12589], the Kd ([5]; MSA, read-out: IC50 or KD α-syn (converted)) is given as 28 nM, the Kd ([5]; PD and MSA tissue, read-out: KD) is given as roughly 30 nM and the Kd ([5]; sporadic PD, read-out: IC50 or KD α-syn (converted)) is given as 33.5 ± 17.4 nM. The Kd [6] was 317 nM and the Kd [7] was 317 nM.
Compound COc1ccc(-c2ccc(NC(=O)N3CCN(c4ccccn4)CC3)cc2C#N)cc1 [GMC015] has a Ki [1] of 28.3 nM, a Ki [2] of 294 nM and a Ki [3] of 761 nM.
COc1cccc(CC(=O)Nc2ccc(N3CCN(c4ccc(C#N)cn4)CC3)cc2)c1 [GMC024] gave a Ki [1] of 25.3 nM, a Ki [2] of 81 nM and a Ki [3] of 68 nM.
Work on COc1ccccc1NC(=O)Nc1ccc(N2CCN(c3ccc(F)cc3)CC2)c(C#N)c1 [GMC-073] yielded a Ki [1] of 8 nM, a Ki [2] of 2630 nM and a Ki [3] of 248 nM.
Compound COc1ccc(/C=C/c2ccc(N3CCN(c4ccc(C#N)cn4)CC3)cc2)cn1 [GMC013_FR-1] has a Ki [1] of 25.5 nM, a Ki [2] of 63 nM and a Ki [3] of 151 nM.
COc1ccc(-c2ccc(NC(=O)N3CCN(c4ccc(OC)cc4)CC3)cc2C#N)cc1 [GMC096] showed a Ki [1] of 6.5 nM, a Ki [2] of 51 nM and a Ki [3] of 2510 nM.
Compound COc1ccccc1CC(=O)Nc1ccc(N2CCN(c3ccc(F)cc3)CC2)nc1 [GMC079] has a Ki [1] of 23.9 nM, a Ki [2] of 404 nM and a Ki [3] of 2510 nM.
In the case of CNc1cnc(C#C/C=C/c2nc3ccc(OCC(O)CF)cc3s2)cn1 (centres unmarked) [[^18F]SPAL-T-06], the IC50 ([5]; MSA, read-out: IC50 or KD α-syn) is listed as 2.5 nM and the IC50 ([5]; brain homogenates from DLB or MSA cases, homologous competition binding studies, read-out: IC50) is listed as 2 to 3 nM.
With COc1ccccc1CC(=O)Nc1ccc(N2CCN(c3ccc(C#N)cn3)CC2)cc1 [GMC023] the Ki [1] was 21.2 nM, the Ki [2] was 151 nM and the Ki [3] was 44 nM.
In the case of [3H]c1cccc(NC(=O)Nc2ccc(N3CCN(c4ccc(F)cc4)CC3)c(C#N)c2)c1OC [[^3H]GMC-073, 1-(3-cyano-4-(4-(4-fluorophenyl)piperazin-1-yl)phenyl)-3-(2-methoxy-[3-3H]-phenyl)urea], the NSB ([4]; 10 nM radioligand) is reported as 346.9 ± 14.5 fmol/mg tissue equivalent, the “Total Minus NSB” value ([4]; 10 nM radioligand) is reported as 318 fmol/mg and the Total binding ([4]; 10 nM radioligand) is reported as 664.6 ± 24.3 fmol/mg tissue equivalent. For the same compound, the NSB ([4]; 20 nM radioligand) was 1022 ± 45 fmol/mg tissue equivalent, the “Total Minus NSB” value ([4]; 20 nM radioligand) was 848 fmol/mg and the Total binding ([4]; 20 nM radioligand) was 1870 ± 100.2 fmol/mg tissue equivalent. The “Binding displaced by GMC-044” value [4] was “approximately 50%” and the “Binding in control tissue” value [4] was “clear binding”.
In the case of COc1ccc(-c2ccc(NC(=O)N3CCN(c4ccc(C#N)cn4)CC3)cc2C#N)cc1 [GMC095], the Ki [1] is reported as 14.5 nM, the Ki [2] is reported as 2630 nM and the Ki [3] is reported as 2510 nM.
COc1ccc(-c2ccc(NC(=O)N3CCN(c4ccccc4)CC3)cc2C#N)cc1 [GMC-098] showed a Ki [1] of 9.7 nM, a Ki [2] of 226 nM and a Ki [3] of 805 nM.
